Reference: US8759482B2, “Kinetically efficient substrate for lipoic acid ligase” (Massachusetts Institute of Technology, priority 2009, dated 2014)

Experiments:
[1] = biological target: T1, Lp1A (Escherichia coli, UniProt P32099); assay: Cell surface lipoylation of CFP-TM fusion constructs on mammalian cells; type: cell-based; settings: HEK cells, CFP-TM fusions, 1 μM Lp1A, 10 min
Method: FIG. 8 depicts cell surface lipoylation of LAP4.3 vs. LAP4.3D. HeLa cells expressing either LAP4.3-CFP-TM or LAP4.3D-CFP-TM were lipoylated with 1 μM Lp1A for 10 minutes. Lipoylation was detected with Alexa568-conjugated anti-lipoic acid antibody.
However, expression levels of intracellular proteins are similar, whether fused to a LAP sequence or E2p. […] Scale bar, 10 μm. […] Single cell mean fluorescein/CFP intensity ratios were tabulated for >160 cells from >18 fields of view.
Second, the LAPs were compared in a cell surface lipoylation assay (FIG. 9). CFP-TM fusion constructs were expressed in human embryonic kidney 293 (HEK) cells, and lipoylation was carried out by purified Lp1A enzyme added to the media. After 10 min of labeling, lipoylated cell surface proteins were imaged using antilipoic acid antibody. […] To quantitatively compare the labeling efficiencies of all the LAP sequences, lipoylation signal (as measured by antibody staining intensity) was plotted against CFP signal for single cells.

[2] = biological target: Lp1AW37A (Escherichia coli, UniProt P32099, W38A); settings: HEK cells, Lp1AW37A and 11-Br 5 min, QD605-HaloTag 5 min
Chain of Lp1AW37A (P32099 whole entry W38A): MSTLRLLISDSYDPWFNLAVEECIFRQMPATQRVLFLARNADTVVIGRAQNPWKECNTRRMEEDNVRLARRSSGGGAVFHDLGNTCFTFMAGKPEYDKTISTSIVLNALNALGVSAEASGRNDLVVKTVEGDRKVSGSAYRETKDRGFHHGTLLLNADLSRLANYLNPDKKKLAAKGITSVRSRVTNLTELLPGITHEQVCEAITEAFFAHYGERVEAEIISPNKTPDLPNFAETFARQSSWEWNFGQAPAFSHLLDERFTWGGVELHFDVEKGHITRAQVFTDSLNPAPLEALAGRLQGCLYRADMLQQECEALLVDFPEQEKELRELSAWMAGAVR
Method: QD605 emission is shown in the top row. Merged GFP and DIC (differential interference contrast) images are shown in the bottom row. Negative controls are shown with ATP or Lp1A omitted. Scale bars, 10 μm.
HEK 293T cells were transfected with LAP2-GFP-LDLR plasmid using Lipofectamine 2000. After 24 h in growth media (Dulbecco's Modified Eagle Medium (DMEM) with 10% fetal bovine serum (FBS)) at 37° C., enzymatic ligation of 11-Br was performed in DPBS containing 10 μM Lp1A(W37A), 500 μM 11-Br, 1 mM ATP, 5 mM Mg(OAc)2 and 1% (w/v) BSA (Fraction V, EMD) as a blocking agent for 5 min at room temperature. Cells were then rinsed three times with DPBS followed by treatment with 50 nM HaloTag-QD60531 in DPBS containing 1% BSA for 5 min at room temperature. After another three rinses with DPBS, cells were imaged in the same buffer on a Zeiss Axio Observer.Z1 inverted epifluorescence microscope using a 40X oil-immersion lens. […] Fluorescence images were normalized to the same intensity ranges.

[3] = biological target: T2, Escherichia coli lipoic acid ligase (Lp1A) (Escherichia coli, UniProt P32099); assay: Lp1A-catalyzed lipoylation kinetics (kcat, Km) by HPLC; type: biochemical; settings: estimated, based on HPLC measurements
T2 sequence (P32099 1-338): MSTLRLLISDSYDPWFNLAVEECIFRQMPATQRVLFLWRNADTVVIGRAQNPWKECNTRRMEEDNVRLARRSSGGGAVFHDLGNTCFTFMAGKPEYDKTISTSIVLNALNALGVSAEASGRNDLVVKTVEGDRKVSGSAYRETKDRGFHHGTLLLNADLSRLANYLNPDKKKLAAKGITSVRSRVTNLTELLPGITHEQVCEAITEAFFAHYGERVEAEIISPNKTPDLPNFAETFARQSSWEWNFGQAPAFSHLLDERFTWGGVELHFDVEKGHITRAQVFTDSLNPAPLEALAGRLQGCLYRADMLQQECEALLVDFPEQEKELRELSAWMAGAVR
Method: Various concentrations of synthetic LAP2 peptide (not a fusion protein) were lipoylated with 50 nM Lp1A, 750 μM lipoic acid, and 3 mM ATP, and initial reaction rates were measured by HPLC. […] Measurements were performed in triplicate.
Using HPLC to quantify product formation, the kcat and Km values were measured for Lp1A-catalyzed lipoylation of a synthetic LAP2 peptide (without an attached fusion protein).
To measure the kcat and Km values for lipoylation, 50 nM Lp1A was combined with 750 μM lipoic acid, 2 mM ATP, and 5 mM magnesium acetate in DPBS. Varying concentrations of LAP2 (5.5, 11, 22, 44, 88, 176, or 352 μM) were used; 60 μL aliquots were removed from the 30° C. reactions at 5 min intervals, up to 20 min, and quenched with 180 mM EDTA (final concentration). HPLC was used to determine the amount of product in each aliquot, and kinetic parameters were extracted using the Michaelis-Menten equation as described previously.^13,28

[4] = biological target: T1, Lp1A; settings: Azide 7 probe; cited from earlier work

For DEVLVEIETDKAVLEVPGGEEE [LAP1], the “cell surface lipoylation (antilipoic acid antibody imaging)” value [1] was “labeling was not detected”, the “QD605 labeling at the cell surface” value [2] was “undetectable” and the Km [3] was greater than 200 µM. For the same sequence, the “kcat for Azide 7 ligation” value [4] was 0.048 s⁻¹.
